According to paper PMC5218480 (PLoS ONE, 2017):

Tested on: MV-4-11 cells
Test: Gene expression microarray analysis (Affymetrix PrimeView) and GSEA
Format: cell-based, human
Parameters: RFU PODN (11730768_x_at) / Fold change /veh PODN (11730768_x_at) / RFU LINC00158 (11744669_a_at) / Fold change /veh LINC00158 (11744669_a_at) / RFU DUSP10 (11751237_a_at) / Fold change /veh DUSP10 (11751237_a_at) / RFU ID3 (11757404_x_at) / Fold change /veh ID3 (11757404_x_at) / RFU PLEKHG5 (11737974_s_at) / Fold change /veh PLEKHG5 (11737974_s_at) / RFU LRRC4B (11730491_at) / Fold change /veh LRRC4B (11730491_at) / RFU GIMAP4 (11747438_a_at) / Fold change /veh GIMAP4 (11747438_a_at) / RFU KRT8 (11758183_x_at) / Fold change /veh KRT8 (11758183_x_at) / RFU CNN1 (11734310_a_at) / Fold change /veh CNN1 (11734310_a_at) / RFU VPS37D (11726825_at) / Fold change /veh VPS37D (11726825_at) / RFU C10orf10 (11716522_x_at) / Fold change /veh C10orf10 (11716522_x_at) / RFU KIR2DL2 /// KIR2DL4 /// KIR2DL5A /// KIR2DL5B /// KIR2DS1 /// KIR2DS2 /// KIR2DS3 /// KIR2DS4 /// KIR3DL3 /// KIR3DL3 /// KIR3DS1 (11738374_at) / Fold change /veh KIR2DL2 /// KIR2DL4 /// KIR2DL5A /// KIR2DL5B /// KIR2DS1 /// KIR2DS2 /// KIR2DS3 /// KIR2DS4 /// KIR3DL3 /// KIR3DL3 /// KIR3DS1 (11738374_at) / RFU C1QL1 (11718748_at) / Fold change /veh C1QL1 (11718748_at) / RFU TMPRSS4 (11747572_a_at) / Fold change /veh TMPRSS4 (11747572_a_at) / RFU HAMP (11756126_x_at) / Fold change /veh HAMP (11756126_x_at) / RFU RNFT2 (11725882_a_at) / Fold change /veh RNFT2 (11725882_a_at) / RFU NR4A2 (11747474_a_at) / Fold change /veh NR4A2 (11747474_a_at) / RFU ABCC12 (11746883_a_at) / Fold change /veh ABCC12 (11746883_a_at) / RFU TMEM136 (11760407_x_at) / Fold change /veh TMEM136 (11760407_x_at) / RFU CLDN22 /// WWC2 (11732394_at) / Fold change /veh CLDN22 /// WWC2 (11732394_at) / RFU HLA-DPB1 (11760878_x_at) / Fold change /veh HLA-DPB1 (11760878_x_at) / RFU SPINT1 (11716480_a_at) / Fold change /veh SPINT1 (11716480_a_at) / RFU GAP43 (11754022_s_at) / Fold change /veh GAP43 (11754022_s_at) / RFU A4GNT (11735810_at) / Fold change /veh A4GNT (11735810_at) / RFU PRB3 (11715151_x_at) / Fold change /veh PRB3 (11715151_x_at) / RFU TUBB4B (11761932_at) / Fold change /veh TUBB4B (11761932_at) / RFU CAPN14 (11732068_a_at) / Fold change /veh CAPN14 (11732068_a_at) / RFU TMCC2 (11721928_a_at) / Fold change /veh TMCC2 (11721928_a_at) / RFU IRGQ (11745062_a_at) / Fold change /veh IRGQ (11745062_a_at) / RFU FAM174B (11720279_a_at) / Fold change /veh FAM174B (11720279_a_at) / RFU TMPRSS4 (11748680_a_at) / Fold change /veh TMPRSS4 (11748680_a_at) / RFU FAM212B (11763350_a_at) / Fold change /veh FAM212B (11763350_a_at) / RFU PLEKHG5 (11743358_a_at) / Fold change /veh PLEKHG5 (11743358_a_at) / RFU ZSCAN30 (11745921_a_at) / Fold change /veh ZSCAN30 (11745921_a_at) / RFU CMKLR1 (11741424_a_at) / Fold change /veh CMKLR1 (11741424_a_at) / RFU LOC101060620 /// MAPK8IP1 (11723275_at) / Fold change /veh LOC101060620 /// MAPK8IP1 (11723275_at) / RFU SPTSSB (11747773_x_at) / Fold change /veh SPTSSB (11747773_x_at) / RFU PRSS12 (11739890_at) / Fold change /veh PRSS12 (11739890_at) / RFU BIN1 (11741810_x_at) / Fold change /veh BIN1 (11741810_x_at) / RFU WNT11 (11732464_a_at) / Fold change /veh WNT11 (11732464_a_at) / RFU C10orf10 (11716521_a_at) / Fold change /veh C10orf10 (11716521_a_at) / RFU C5orf56 (11738089_at) / Fold change /veh C5orf56 (11738089_at) / RFU CYB561 (11721691_x_at) / Fold change /veh CYB561 (11721691_x_at) / RFU ANKRD19P (11752326_a_at) / Fold change /veh ANKRD19P (11752326_a_at) / RFU OR2T12 /// OR2T33 /// OR2T8 (11738714_s_at) / Fold change /veh OR2T12 /// OR2T33 /// OR2T8 (11738714_s_at) / RFU VCAN (11748164_a_at) / Fold change /veh VCAN (11748164_a_at) / RFU JSRP1 (11732532_at) / Fold change /veh JSRP1 (11732532_at) / RFU KRTAP10-11 (11738290_x_at) / Fold change /veh KRTAP10-11 (11738290_x_at) / RFU MYO3A (11730013_a_at) / Fold change /veh MYO3A (11730013_a_at) / RFU EBF3 (11725865_a_at) / Fold change /veh EBF3 (11725865_a_at) / RFU CAMK2N1 (11719241_x_at) / Fold change /veh CAMK2N1 (11719241_x_at) / RFU C5orf56 (11738088_a_at) / Fold change /veh C5orf56 (11738088_a_at) / RFU OLFML3 (11715873_a_at) / Fold change /veh OLFML3 (11715873_a_at) / RFU LOC100653217 /// NTM (11731650_a_at) / Fold change /veh LOC100653217 /// NTM (11731650_a_at) / RFU MAPK11 (11762145_a_at) / Fold change /veh MAPK11 (11762145_a_at) / RFU FIZ1 (11724087_x_at) / Fold change /veh FIZ1 (11724087_x_at) / RFU OASL (11726364_x_at) / Fold change /veh OASL (11726364_x_at) / RFU SOX15 (11748057_x_at) / Fold change /veh SOX15 (11748057_x_at) / RFU CD79A (11719716_a_at) / Fold change /veh CD79A (11719716_a_at) / RFU HIST1H1D (11736915_at) / Fold change /veh HIST1H1D (11736915_at) / RFU CASKIN2 (11723855_a_at) / Fold change /veh CASKIN2 (11723855_a_at) / RFU LOC730098 (11760151_x_at) / Fold change /veh LOC730098 (11760151_x_at) / RFU OR4N2 (11742367_at) / Fold change /veh OR4N2 (11742367_at) / RFU PRRT2 (11749266_a_at) / Fold change /veh PRRT2 (11749266_a_at) / RFU SNX32 (11753110_a_at) / Fold change /veh SNX32 (11753110_a_at) / RFU CDHR5 (11726645_a_at) / Fold change /veh CDHR5 (11726645_a_at) / RFU RCAN1 (11760418_a_at) / Fold change /veh RCAN1 (11760418_a_at) / RFU FAM167A (11723789_a_at) / Fold change /veh FAM167A (11723789_a_at) / RFU FAM26E (11764081_at) / Fold change /veh FAM26E (11764081_at) / RFU ISYNA1 (11749810_s_at) / Fold change /veh ISYNA1 (11749810_s_at) / RFU ACY1 (11761880_at) / Fold change /veh ACY1 (11761880_at) / RFU 11764098_at / Fold change /veh 11764098_at / RFU SAMD14 (11745864_x_at) / Fold change /veh SAMD14 (11745864_x_at) / RFU NPB (11741838_a_at) / Fold change /veh NPB (11741838_a_at) / RFU TMPRSS6 (11731388_a_at) / Fold change /veh TMPRSS6 (11731388_a_at) / RFU KRTAP10-2 (11738614_at) / Fold change /veh KRTAP10-2 (11738614_at) / RFU ARHGAP8 /// PRR5-ARHGAP8 (11727945_x_at) / Fold change /veh ARHGAP8 /// PRR5-ARHGAP8 (11727945_x_at) / RFU KRTAP5-7 /// NADSYN1 (11734609_at) / Fold change /veh KRTAP5-7 /// NADSYN1 (11734609_at) / RFU RASL12 (11751679_a_at) / Fold change /veh RASL12 (11751679_a_at) / RFU CDKN2B (11736163_a_at) / Fold change /veh CDKN2B (11736163_a_at) / RFU PRF1 (11729649_at) / Fold change /veh PRF1 (11729649_at) / RFU, ZNF638 /// ZNF638-IT1 / Fold change vs veh, ZNF638 /// ZNF638-IT1 / RFU, PANK3 / Fold change vs veh, PANK3 / RFU, SH3YL1 / Fold change vs veh, SH3YL1 / RFU, ZEB2 / Fold change vs veh, ZEB2 / RFU, NRIP1 / Fold change vs veh, NRIP1 / RFU, PTTG1IP / Fold change vs veh, PTTG1IP / RFU, CAPN2 / Fold change vs veh, CAPN2 / RFU, MED14 / Fold change vs veh, MED14 / RFU, SNORA58 / Fold change vs veh, SNORA58 / RFU, C1orf63 / Fold change vs veh, C1orf63 / RFU, LRRFIP1 / Fold change vs veh, LRRFIP1 / RFU, NDUFAF7 / Fold change vs veh, NDUFAF7 / RFU, SLC12A2 / Fold change vs veh, SLC12A2 / RFU, IBTK / Fold change vs veh, IBTK / RFU, ESF1 / Fold change vs veh, ESF1 / Fold change vs veh, TMEM50B / RFU, TAOK1 / Fold change vs veh, TAOK1 / RFU, ACBD3 / Fold change vs veh, ACBD3 / RFU, TMA16 / Fold change vs veh, TMA16 / RFU, RWDD3 / Fold change vs veh, RWDD3 / RFU, BCAT1 / Fold change vs veh, BCAT1 / RFU, EDEM3 / Fold change vs veh, EDEM3 / RFU, TMEM33 / Fold change vs veh, TMEM33 / RFU, WDR75 / Fold change vs veh, WDR75 / RFU, AHCTF1 / Fold change vs veh, AHCTF1 / RFU, TFRC / Fold change vs veh, TFRC / RFU, ZDHHC17 / Fold change vs veh, ZDHHC17 / RFU, NOM1 / Fold change vs veh, NOM1 / RFU, ARL8B / Fold change vs veh, ARL8B / RFU, ZBTB11 / Fold change vs veh, ZBTB11 / RFU, TAMM41 / Fold change vs veh, TAMM41 / RFU, KIAA1704 /// LOC100996395 / Fold change vs veh, KIAA1704 /// LOC100996395 / RFU, ING1 / Fold change vs veh, ING1 / RFU, TRMT61B / Fold change vs veh, TRMT61B / RFU, FUBP3 / Fold change vs veh, FUBP3 / RFU, TP53 / Fold change vs veh, TP53 / RFU, TNKS2 / Fold change vs veh, TNKS2 / RFU, ZFP14 / Fold change vs veh, ZFP14 / RFU, ACTR2 / Fold change vs veh, ACTR2 / RFU, PPP3R1 / Fold change vs veh, PPP3R1 / RFU, PIK3R1 / Fold change vs veh, PIK3R1 / RFU, HNRNPA1 / Fold change vs veh, HNRNPA1 / RFU, RNF170 / Fold change vs veh, RNF170 / RFU, ZNF28 / Fold change vs veh, ZNF28 / RFU, RNGTT / Fold change vs veh, RNGTT / RFU, OGT / Fold change vs veh, OGT / RFU, BRD1 / Fold change vs veh, BRD1 / RFU, MARS / Fold change vs veh, MARS / RFU, ZNF655 / Fold change vs veh, ZNF655 / RFU, FAHD1 / Fold change vs veh, FAHD1 / RFU, BDP1 / Fold change vs veh, BDP1 / RFU, LRRCC1 / Fold change vs veh, LRRCC1 / RFU, ARID1A / Fold change vs veh, ARID1A / RFU, ZNF146 / Fold change vs veh, ZNF146 / RFU, ZNF330 / Fold change vs veh, ZNF330 / RFU, GPN3 / Fold change vs veh, GPN3 / RFU, C9orf123 / Fold change vs veh, C9orf123 / RFU, N4BP2L2 / Fold change vs veh, N4BP2L2 / RFU, ARFIP1 / Fold change vs veh, ARFIP1 / RFU, FAM179B / Fold change vs veh, FAM179B / RFU, BCL10 / Fold change vs veh, BCL10 / RFU, UHRF1BP1L / Fold change vs veh, UHRF1BP1L / RFU, BET1 / Fold change vs veh, BET1 / RFU, CNOT2 / Fold change vs veh, CNOT2 / RFU, ZNF268 / Fold change vs veh, ZNF268 / Fold change vs veh, ZNF507 / RFU, DGCR2 / Fold change vs veh, DGCR2 / RFU, WDSUB1 / Fold change vs veh, WDSUB1 / Fold change vs veh, HSP90B1 /// MIR3652 / RFU, ADSS / Fold change vs veh, ADSS / RFU, GK / Fold change vs veh, GK / RFU, ZNF148 / Fold change vs veh, ZNF148 / RFU, TAF9 / Fold change vs veh, TAF9 / RFU, SLC1A5 / Fold change vs veh, SLC1A5 / RFU, SLMO2 / Fold change vs veh, SLMO2 / RFU, ABCC4 / Fold change vs veh, ABCC4 / RFU, LOC101060439 /// RAP1B / Fold change vs veh, LOC101060439 /// RAP1B / RFU, RFX7 / Fold change vs veh, RFX7 / RFU, GTPBP10 / Fold change vs veh, GTPBP10 / RFU, CNEP1R1 / Fold change vs veh, CNEP1R1 / RFU, BIVM-ERCC5 /// ERCC5 / Fold change vs veh, BIVM-ERCC5 /// ERCC5 / RFU, ILF3 / Fold change vs veh, ILF3 / RFU 11762660_at / Fold change /veh 11762660_at / RFU VCAN (11757783_s_at) / Fold change /veh VCAN (11757783_s_at) / RFU DDX43 (11728927_at) / Fold change /veh DDX43 (11728927_at) / RFU KRT8 (11758188_x_at) / Fold change /veh KRT8 (11758188_x_at) / RFU NKD1 (11759106_at) / Fold change /veh NKD1 (11759106_at) / RFU SRD5A1 (11742802_a_at) / Fold change /veh SRD5A1 (11742802_a_at) / RFU TPSAB1 /// TPSB2 (11721975_s_at) / Fold change /veh TPSAB1 /// TPSB2 (11721975_s_at) / RFU GSTM3 (11746129_a_at) / Fold change /veh GSTM3 (11746129_a_at) / RFU IL23R (11737362_x_at) / Fold change /veh IL23R (11737362_x_at) / RFU TMEM51 (11727254_a_at) / Fold change /veh TMEM51 (11727254_a_at) / RFU PIWIL2 (11732686_x_at) / Fold change /veh PIWIL2 (11732686_x_at) / RFU ORM1 (11744905_x_at) / Fold change /veh ORM1 (11744905_x_at) / RFU CCDC152 (11743942_at) / Fold change /veh CCDC152 (11743942_at) / RFU ECM1 (11717891_a_at) / Fold change /veh ECM1 (11717891_a_at) / RFU IL23R (11748794_a_at) / Fold change /veh IL23R (11748794_a_at) / RFU TNFAIP8L3 (11732012_x_at) / Fold change /veh TNFAIP8L3 (11732012_x_at) / RFU MBOAT4 (11741988_at) / Fold change /veh MBOAT4 (11741988_at) / RFU 11764193_at / Fold change /veh 11764193_at / RFU TMEM53 (11763286_at) / Fold change /veh TMEM53 (11763286_at) / RFU MAGEB2 (11727129_at) / Fold change /veh MAGEB2 (11727129_at) / RFU TMEM200A (11744735_a_at) / Fold change /veh TMEM200A (11744735_a_at) / RFU CCDC152 (11751479_a_at) / Fold change /veh CCDC152 (11751479_a_at) / RFU FAM211A (11726209_a_at) / Fold change /veh FAM211A (11726209_a_at) / RFU RGS16 (11746705_a_at) / Fold change /veh RGS16 (11746705_a_at) / RFU VCAN (11755009_s_at) / Fold change /veh VCAN (11755009_s_at) / RFU RHOB (11743442_s_at) / Fold change /veh RHOB (11743442_s_at) / RFU RGS16 (11720943_a_at) / Fold change /veh RGS16 (11720943_a_at) / RFU RGS16 (11720944_at) / Fold change /veh RGS16 (11720944_at) / RFU, VPS4B / Fold change vs veh, VPS4B / RFU, CREB1 / Fold change vs veh, CREB1 / RFU, DNAJC13 / Fold change vs veh, DNAJC13 / RFU, GNAQ / Fold change vs veh, GNAQ / RFU, CDK5R1 / Fold change vs veh, CDK5R1 / RFU, ZRANB3 / Fold change vs veh, ZRANB3 / RFU, CUL4A / Fold change vs veh, CUL4A / RFU, CCNY / Fold change vs veh, CCNY / RFU, UFL1 / Fold change vs veh, UFL1 / RFU, COG3 / Fold change vs veh, COG3 / RFU, DIAPH2 / Fold change vs veh, DIAPH2 / RFU, SKA2 / Fold change vs veh, SKA2 / RFU, AFF3 / Fold change vs veh, AFF3 / RFU, LMF1 / Fold change vs veh, LMF1 / RFU, IPO11 / Fold change vs veh, IPO11 / RFU, DFFB / Fold change vs veh, DFFB / RFU, FOXP1 / Fold change vs veh, FOXP1 / RFU, CARD8 / Fold change vs veh, CARD8 / RFU, STRN3 / Fold change vs veh, STRN3 / RFU, ADK / Fold change vs veh, ADK / RFU, RASSF2 / Fold change vs veh, RASSF2 / RFU, WIPF1 / Fold change vs veh, WIPF1 / RFU, LARP1B / Fold change vs veh, LARP1B / RFU, RASA1 / Fold change vs veh, RASA1 / RFU, RB1 / Fold change vs veh, RB1 / RFU, PPFIA1 / Fold change vs veh, PPFIA1 / RFU, MAT2A / Fold change vs veh, MAT2A / RFU, CCT5 / Fold change vs veh, CCT5 / RFU, WDR92 / Fold change vs veh, WDR92 / RFU, CUX1 / Fold change vs veh, CUX1 / RFU, TTC7A / Fold change vs veh, TTC7A / RFU, TMEM135 / Fold change vs veh, TMEM135 / RFU, DEPTOR / Fold change vs veh, DEPTOR / RFU, CPM / Fold change vs veh, CPM / RFU, DNAJB6 / Fold change vs veh, DNAJB6 / RFU, CACNA2D3 / Fold change vs veh, CACNA2D3 / RFU, DTX4 / Fold change vs veh, DTX4 / RFU, TFCP2 / Fold change vs veh, TFCP2 / RFU, GMCL1 /// GMCL1P1 / Fold change vs veh, GMCL1 /// GMCL1P1 / RFU, AEBP2 / Fold change vs veh, AEBP2 / RFU, SNHG1 /// SNORD22 /// SNORD25 /// SNORD26 /// SNORD27 /// SNORD28 /// SNORD29 /// SNORD31 / Fold change vs veh, SNHG1 /// SNORD22 /// SNORD25 /// SNORD26 /// SNORD27 /// SNORD28 /// SNORD29 /// SNORD31 / Fold change (Aza/veh), C12orf56 (ProbeSet 11735607_a_at) / Fold change (ACY-1035/veh), C12orf56 (ProbeSet 11735607_a_at) / Fold change (Aza/veh), FGFR1OP (ProbeSet 11751329_s_at) / Fold change (ACY-1035/veh), FGFR1OP (ProbeSet 11751329_s_at) / Fold change (Aza/veh), VPS36 (ProbeSet 11739960_a_at) / Fold change (ACY-1035/veh), VPS36 (ProbeSet 11739960_a_at) / RFU SYPL1 (11715823_x_at) / Fold change /veh SYPL1 (11715823_x_at) / RFU IGFBP7 (11715501_s_at) / Fold change /veh IGFBP7 (11715501_s_at) / RFU REEP3 (11722064_at) / Fold change /veh REEP3 (11722064_at) / RFU IGLL1 (11728026_x_at) / Fold change /veh IGLL1 (11728026_x_at): dose or concentration left out as unconfirmed
Details: MV-4-11 cells, 48 hours

## Nc1ccc(-c2cccs2)cc1NC(=O)c1ccc2c(c1)cc(C1CC1)n2CCN1CCOCC1 [ACY-1035]
  RFU KRTAP10-11 (11738290_x_at): 38.61 RFU
